In PMC7217877, “N-AS-triggered SPMs are direct regulators of microglia in a model of Alzheimer’s disease” (Nature Communications, 2020):
Where “and” joins values, the source holds several entries; their conditions need not be identical. Equal values may be shown once.

Key:
[1] = test system: neuron; assay: western blotting for ac-S565 and total COX2 in primary cells; assay type: cell-based, C57BL/6 mice; conditions: replicates
[2] = test system: neuron; assay: quantification of 15R-LXA4, RvE1, RvD1 in primary cells (LC-MS/MS); assay type: cell-based, C57BL/6 mice; set-up: unit not given here; conditions: replicates
Protocol: Lipid mediators metabololipidomics were performed according to previously described procedures with minor modifications[4],[30]. To confirm the biosynthesis of lipid mediators by recombinant COX2 treated with N-AS or aspirin, 10 U of human recombinant COX2 (Cayman, 60122) was incubated in the presence of 500 μM aspirin (Sigma-Aldrich, A5376) or N-AS (Sigma-Aldrich, 01912) at 37 °C for 30 min. The enzyme was filtered with a Microcon column (Millipore) to remove unreacted aspirin or N-AS and was then resuspended in 0.1 M Tris-HCl (pH 8.0). Next, 500 μM phenol (Sigma-Aldrich) and 1 μM hematin-porcine (Sigma-Aldrich) were added immediately before incubation with 100 μM AA, EPA or DHA (Cayman) at 37 °C for 2 h, respectively. The mixtures were incubated with 30 U of human 5-LOX (Cayman, 60402) containing 2 mM CaCl2 (Sigma-Aldrich), 1 mM ATP (Amresco) and 5 μM 13-HpODE (Cayman) as activators. Also, to validate the importance of residue S565 for N-AS-acetylation of COX2 and production of SPMs, 10 U of the COX2 S565A mutant was used in the above-described method. In addition, to confirm SPM generation in neurons and microglia, these cells were treated with Aβ and sonicated in neuronal and glial culture medium. […] To evaluate the relationship of N-AS and SPM production in microglia, microglia were isolated from WT, APP/PS1, and APP/PS1 treated with N-AS mice at 9 months of age. The microglia were sonicated and resuspended in microglial culture medium. The supernatants were incubated with 100 μM AA, EPA, and DHA (Cayman) at 37 °C for 2 h. A 50 μl aliquot of the mixture from each cell lysate was added to a 250 μl aliquot of 1 ng ml^−1 of 15S-LXA4-d5 (internal standard, Cayman) methanol solution. After vortexing for 10 min and centrifuging at 15,974×g for 5 min, the supernatant was subjected to the analysis of the lipid mediators using an Agilent 6470 Triple Quad LC-MS/MS system (Agilent) coupled to an Agilent 1290 HPLC system. Chromatographic separation was achieved using a Synergi Polar RP (4 μm, 2.0 mm i.d. × 150 mm, Phenomenex). Analytes were eluted with a mobile phase consisting of water: formic acid (100:0.1 v/v) (phase A) and methanol: formic acid (100:0.1 v/v) (phase B) in gradient elution mode for 23 min a flow rate of 0.2 ml min^−1. The elution gradient was as follows: from 0 to 0.1 min the content of phase A was 37% and the content of phase A was decreased to 10% and maintained for 5.5 min. The content of phase A was increased back to 37% at 6.0 min and maintained for 23 min. Quantification was carried out using MRM in negative ionization mode and collision energy of 10–15 eV. The mass transition from Q1 to Q3 is shown in Supplementary Table 2. In this study, the peak areas for all components were automatically integrated using MassHunter B 06.00.
To confirm the generation and roles of N-AS in neurons, cells from E18 C57BL/6 mice were prepared as previously described. Cortices were dissected and then dissociated followed by incubation in papain (Worthington) at 37 °C for 15 min. Neurons were plated on poly-L-lysine-coated coverslips with neuronal culture medium, serum-free Neurobasal medium (Gibco) containing 2% B27 supplements (Gibco), 1 mM Glutamax supplement (Gibco), and 100 U ml^−1 streptomycin/ 100 U ml^−1 penicillin (Gibco) at 37 °C in a humidified atmosphere of 5% CO2. […] Primary astrocyte cultures were prepared from C57BL/6 mice as described previously. In brief, after removal of the meninges, postnatal day 7 (P7) mouse brain tissues were minced and incubated in a rocking water bath at 37 °C for 30 min in the presence of 0.25% trypsin-EDTA (Sigma-Aldrich). Enzyme-digested dissociated cells were triturated with astrocyte-specific medium (DMEM/F12 containing 10% FBS and 1% penicillin-streptomycin) and centrifuged at 155×g for 8 min. The pellet was resuspended in astrocyte-specific medium and passed through a 40-μm cell strainer. […]

[3] = test system: immortalized human microglia; assay: LM-SPM profile of human microglia (LC-MS/MS, Supplementary Table 3, Fig 6d); assay type: cell-based; set-up: 15R-LxA4 / RvE1 / RvD1: unit not given here; conditions: for 15R-LxA4 / RvD1 / RvE1: human microglia, sFig 6d; for 11-HEPE in human microglia / 11-HETE in human microglia / 13-HDHA in human microglia / 15-HEPE in human microglia / 15-HETE in human microglia / 15R-LXA4 in human microglia / 17-HDHA in human microglia / 18-HEPE in human microglia / PGE3/PGD3 in human microglia / PGH2/PGE2 in human microglia / RvD1 in human microglia / RvE1 in human microglia: mean±s.e.m.

## CC(=O)SCCNC(=O)CCNC(=O)[C@H](O)C(C)(C)COP(=O)(O)OP(=O)(O)OC[C@H]1O[C@@H](n2cnc3c(N)ncnc32)[C@H](O)[C@@H]1OP(=O)(O)O [Acetyl-CoA, acetyl-CoA]
[1]; Ab 10mM + supplement
  ac-S565, western blotting (Fig 3h): 0.4974 and 0.4784 and 0.4801 and 0.5239
[2]; Ab + supplement
  15R-LxA4 (Fig 3i): 0.02549 and 0.02793 and 0.0321 and 0.02233 and 0.02865 and 0.02722
  RvD1 (Fig 3i): 0.01313 and 0.01214 and 0.01403 and 0.01264 and 0.01308 and 0.01333
  RvE1 (Fig 3i): 0.01432 and 0.01422 and 0.01286 and 0.01427 and 0.01354 and 0.01357
[3]; Aβ 50 µM +
  15R-LxA4: 29.8592 and 28.6097 and 30.6248 and 29.0936 and 30.1012
  RvD1: 2.566 and 2.828 and 2.839 and 2.697 and 2.833 and 2.768
  RvE1: 14.9946 and 13.574 and 15.0361 and 14.2843 and 14.305

## CCCCCCCCCCCCC/C=C/[C@@H](O)[C@H](CO)NC(C)=O [N-AS, N-((2S,3R,E)-1,3-Dihydroxyoctadec-4-en-2-yl)acetamide]
[1]; Ab 10mM + supplement
  ac-S565, western blotting (Fig 3h): 1.382 and 1.374 (2×) and 1.247
[2]; Ab + supplement
  15R-LxA4 (Fig 3i): 3.35 and 3.4991 and 3.7074 and 3.111 and 3.589 and 3.409
  RvD1 (Fig 3i): 0.555 and 0.7676 and 0.6961 and 0.6613 and 0.7318 and 0.6787
  RvE1 (Fig 3i): 3.2 and 3.853 and 3.712 and 3.527 and 3.7827 and 3.619
[3]; Aβ 50 µM + treatment
  11-HEPE in human microglia: 371.7±4.0 ng/ml*106cell
  11-HETE in human microglia: 148.4±1.9 ng/ml*106cell
  13-HDHA in human microglia: 133.0±1.8 ng/ml*106cell
  15-HEPE in human microglia: 237.9±3.7 ng/ml*106cell
  15-HETE in human microglia: 625.4±1.7 ng/ml*106cell
  15R-LXA4 in human microglia: 19.8±0.2 ng/ml*106cell
  17-HDHA in human microglia: 707.6±8.2 ng/ml*106cell
  18-HEPE in human microglia: 1763.6±30.4 ng/ml*106cell
  PGE3/PGD3 in human microglia: 132.9±2.0 ng/ml*106cell
  PGH2/PGE2 in human microglia: 95.7±0.9 ng/ml*106cell
  RvD1 in human microglia: 2.13±0.02 ng/ml*106cell
  RvE1 in human microglia: 8.6±0.3 ng/ml*106cell
[3]; Aβ-treated human microglia + N-AS
  SPM production, in words: improved SPM production
[3]; Control (no Aβ) + treatment
  11-HEPE in human microglia: 451.8±4.6 ng/ml*106cell
  11-HETE in human microglia: 161.8±0.9 ng/ml*106cell
  13-HDHA in human microglia: 133.9±2.2 ng/ml*106cell
  15-HEPE in human microglia: 284.1±4.0 ng/ml*106cell
  15-HETE in human microglia: 625.5±6.8 ng/ml*106cell
  15R-LXA4 in human microglia: 28.7±0.3 ng/ml*106cell
  17-HDHA in human microglia: 633.8±9.2 ng/ml*106cell
  18-HEPE in human microglia: 1636.9±19.7 ng/ml*106cell
  PGE3/PGD3 in human microglia: 113.1±1.6 ng/ml*106cell
  PGH2/PGE2 in human microglia: 105.8±1.1 ng/ml*106cell
  RvD1 in human microglia: 2.36±0.02 ng/ml*106cell
  RvE1 in human microglia: 18.5±0.4 ng/ml*106cell
[3]; Aβ 50 µM +
  15R-LxA4: 20.003 and 19.3859 and 19.5943 and 20.5159 and 19.4901 and 20.0551
  RvD1: 2.139 and 2.0589 and 2.21 and 2.099 and 2.134 and 2.154
  RvE1: 9.835 and 7.339 and 9.039 and 8.587 and 8.189 and 8.813
[3]; Aβ 50 µM -
  15R-LxA4: 29.0008 and 28.9046 and 27.6099 and 29.7445 and 28.2572 and 28.6772
  RvD1: 2.289 and 2.353 and 2.443 and 2.321 and 2.398 and 2.382
  RvE1: 19.7237 and 16.8195 and 19.2333 and 18.2716 and 18.0264 and 18.7524

## CCCCCCCCCCCCC/C=C/[C@@H](O)[C@@H](N)CO [Sph, sphingosine]
[1]; Ab 10mM + supplement
  ac-S565, western blotting (Fig 3h): 0.6309 and 0.6553 and 0.6332 and 0.656
[2]; Ab + supplement
  15R-LxA4 (Fig 3i): 0.02593 and 0.02461 and 0.02134 and 0.02662 and 0.02525 and 0.02398
  RvD1 (Fig 3i): 0.01101 and 0.01211 and 0.01321 and 0.01156 and 0.01266 and 0.01239
  RvE1 (Fig 3i): 0.01121 and 0.01127 and 0.01125 (2×) and 0.01124 and 0.01126

## Ab: Aβ 1–42 (Invitrogen, 03112) used to induce an AD environment in cells
[1]; Ab 10mM, no supplement
  ac-S565, western blotting (Fig 3h): 0.4287 and 0.5828 and 0.4634 and 0.6503
[1]; Ab 10mM
  ac-S565 / total COX2, western blotting (Fig 3b): 0.7374 and 0.6807 and 0.7791 and 0.4902 and 0.709 and 0.7299
[2]; Ab, no supplement
  15R-LxA4 (Fig 3i): 0.02346 and 0.02267 and 0.02051 and 0.02367 and 0.02325 and 0.02209
  RvD1 (Fig 3i): 0.01315 and 0.01104 and 0.01107 and 0.0121 and 0.01106 and 0.01158
  RvE1 (Fig 3i): 0.0152 and 0.01424 and 0.01723 and 0.01472 and 0.01573 and 0.01598
[3]; Aβ 50 µM alone
  11-HEPE in human microglia: 490.2±2.4 ng/ml*106cell
  11-HETE in human microglia: 174.9±2.0 ng/ml*106cell
  13-HDHA in human microglia: 128.2±1.8 ng/ml*106cell
  15-HEPE in human microglia: 272.1±7.3 ng/ml*106cell
  15-HETE in human microglia: 564.3±4.4 ng/ml*106cell
  15R-LXA4 in human microglia: 0.03±0.0 ng/ml*106cell
  17-HDHA in human microglia: 561.8±2.7 ng/ml*106cell
  18-HEPE in human microglia: 1515.3±10.4 ng/ml*106cell
  PGE3/PGD3 in human microglia: 163.9±2.5 ng/ml*106cell
  PGH2/PGE2 in human microglia: 78.7±0.8 ng/ml*106cell
  RvD1 in human microglia: 0.01±0.0 ng/ml*106cell
  RvE1 in human microglia: 0.01±0.0 ng/ml*106cell

B1: Sphk1: purified sphingosine kinase1 enzyme (Cayman, 10348) supplemented to cell lysates (protein, UniProt Q9NYA1 1-384, looked up)
Sphingosine kinase 1: MDPAGGPRGVLPRPCRVLVLLNPRGGKGKALQLFRSHVQPLLAEAEISFTLMLTERRNHARELVRSEELGRWDALVVMSGDGLMHEVVNGLMERPDWETAIQKPLCSLPAGSGNALAASLNHYAGYEQVTNEDLLTNCTLLLCRRLLSPMNLLSLHTASGLRLFSVLSLAWGFIADVDLESEKYRRLGEMRFTLGTFLRLAALRTYRGRLAYLPVGRVGSKTPASPVVVQQGPVDAHLVPLEEPVPSHWTVVPDEDFVLVLALLHSHLGSEMFAAPMGRCAAGVMHLFYVRAGVSRAMLLRLFLAMEKGRHMEYECPYLVYVPVVAFRLEPKDGKGVFAVDGELMVSEAVQGQVHPNYFWMVSGCVEPPPSWKPQQMPPPEEPL
[1]; Ab 10mM + supplement
  ac-S565, western blotting (Fig 3h): 1.248 and 1.156 and 1.263 and 1.199
[2]; Ab + supplement
  15R-LxA4 (Fig 3i): 3.266 and 3.3679 and 3.485 and 3.078 and 3.454 and 3.282
  RvD1 (Fig 3i): 0.5366 and 0.8616 and 0.7359 and 0.6991 and 0.7987 and 0.7175
  RvE1 (Fig 3i): 3.815 and 3.7466 and 3.98 and 3.781 and 3.863 and 3.88
